≈ marks a conversion by molar mass, not a printed value. Read-outs that look alike come from different tables or passages of the source.
Key:
Aspergillus fumigatus [1] = conditions: ATCC MYA-3626; 48 hr; Example 1 table; cited from earlier work
Candida parapsilosis [2] = conditions: ATCC 22019, Example 1 table, cited from earlier work
Aspergillus fumigatus [3] = assay: Broth microdilution MIC, yeast and fungi (Example 1); assay type: cell-based; conditions: isolate MMX 5280 (ATCC MYA-3626)
Candida parapsilosis [4] = conditions: ATCC 22019, Example 4 table, cited from earlier work
Aspergillus fumigatus [5] = conditions: MYA-3626; 48 hr; Example 4 table; cited from earlier work
Candida parapsilosis [6] = assay: Broth microdilution MIC, yeast and fungi (Example 1); assay type: cell-based; conditions: Example 1, isolate MMX 2323 (ATCC 22019)
Aspergillus fumigatus [7] = assay: Broth microdilution MIC, fungi (Example 4); assay type: cell-based; conditions: Example 4, isolate MMX 5280 (MYA-3626)
Candida parapsilosis [8] = assay: Broth microdilution MIC, fungi (Example 4); assay type: cell-based; conditions: Example 4, isolate MMX 2323 (ATCC 22019)

C[C@@H]1[C@H](O)[C@@H](C)/C=C/C=C/C=C/C=C/C=C/C=C/C=C/[C@H](O[C@@H]2O[C@H](C)[C@@H](O)[C@H](N)[C@@H]2O)C[C@@H]2O[C@](O)(C[C@@H](O)C[C@@H](O)[C@H](O)CC[C@@H](O)C[C@@H](O)CC(=O)O[C@H]1C)C[C@H](O)[C@H]2C(=O)O [Amphotericin B]
CLSI QC range (MIC) (Aspergillus fumigatus [1]): 0.5 to 4 µg/mL
CLSI QC range (MIC) (Candida parapsilosis [2]; 24 hr): 0.5 to 2 µg/mL
CLSI QC range (MIC) (Candida parapsilosis [2]; 48 hr): 0.25 to 4 µg/mL
MIC at 24 hr (Aspergillus fumigatus [3]; 24 hr): 0.5, μg/mL
MIC at 48 hr (Aspergillus fumigatus [3]; 48 hr): 2 µg/mL (≈ 2.16 µM)
CLSI QC range (MIC) (Candida parapsilosis [4]; 24 hr): (0.5-2)^3, μg/mL
CLSI QC range (MIC) (Candida parapsilosis [4]; 48 hr): (0.25-4)^3 μg/mL
CLSI QC range (MIC) (Aspergillus fumigatus [5]): (0.5-4)^3 μg/mL
MIC at 24 hr (Candida parapsilosis [6]; 24 hr): 0.5 µg/mL (≈ 0.541 µM)
MIC at 48 hr (Candida parapsilosis [6]; 48 hr): 1 µg/mL (≈ 1.08 µM)
MIC at 24 hr (Aspergillus fumigatus [7]; 24 hr): 0.25 µg/mL (≈ 0.271 µM)
MIC at 48 hr (Aspergillus fumigatus [7]; 48 hr): 1 µg/mL (≈ 1.08 µM)
MIC at 24 hr (Candida parapsilosis [8]; 24 hr): 0.12 µg/mL (≈ 0.13 µM)
MIC at 48 hr (Candida parapsilosis [8]; 48 hr): 0.5 µg/mL (≈ 0.541 µM)

— US11207291B2, “Antimicrobial compositions comprising cannabinoids and methods of using the same” (Graphium Biosciences, Inc., priority 2017, dated 2021)
